According to patent US7989466B2, “Methods to inhibit or augment an inflammatory response” (Cambridge Enterprise Limited, priority 1999, dated 2011):
No end group written: not given here.

What was measured:
Assay type in all cases: cell-based
[1] = system: TGFβ1 induced human monocyte migration; test: Human monocyte migration, TGFβ1; conditions: n.s. = no statistically significant inhibition
Procedure: (§1) Agents may also be screened in a chemotactic assay which employs human neutrophils, eosinophils, mast cells, basophils, platelets, lymphocytes or monocytes. For monocytes, 9 mls of fresh blood are transferred to a tube containing 1 ml of 3.8% sodium citrate, and left at room temperature for 15 minutes. Five mls of this anti-coagulated blood are carefully layered over 3.5 ml Polymorphprep® (Nycomed Pharma, Oslo), and centrifuged at 500 g for 35 minutes per the manufacturer's instructions. The top band at the sample/medium interface contains monocytes. The monocytes are carefully removed with a glass pipette, and reconstituted to the original volume (5 ml). The cells are washed with PBS plus 10% fetal calf serum, and centrifuged at 400 g for 10 minutes. The washing step is repeated three times before the cells are counted. Cells are resuspended at 1×10^7 cells/ml in RPMI-1640+10% fetal calf serum (FCS). The monocytes are cultured for two days at 37° C. in a humidified atmosphere of 5% CO2.
(§2) On day 2, the cells are counted, spun down, and reconstituted to 1×10^7 cells/ml in Gey's balanced salt solution+1 mg/ml bovine serum albumin (BSA). […]

[2] = system: IL8 induced human monocyte migration; test: Human monocyte migration, IL8; conditions: n.s. = no statistically significant inhibition
Procedure: as §1, §2

HIV (MN) = test: HIV infectivity of THP-1 cells, p24gag immunofluorescence; conditions: 100 μM peptide, HIV strain MN, 72 hours
Procedure: (a) HIV (IIIb) replication in cultures of Jurkat T-cells was estimated by measuring the supernatant reverse transcriptase activity two weeks after infection. Peptide 2 and peptide 3 were at 100 μM final concentration and SDF-1α was added at 100 ng/ml final concentration 1 hour prior to exposure to virus. Values are mean±SEM from 12 wells, expressed as the percentage of the reverse transcriptase activity in the supernatant from the control wells. The experiment shown is typical of six separate experiments. (b) HIV (IIIb) infectivity of Jurkat T-cells was estimated by staining cells treated identically to those in (a) for p24^gag expression. Values are mean±S.D. percentage of cells stained for p24gag averaged from 12 fields of view from each of two separate wells. (c) HIV (MN) infectivity of THP-1 cells measured as in (b). MIP-1α was used at 100 ng/ml final concentration. (d) Immunofluorescence micrographs of THP-1 cells 48 hours after exposure to HIV (MN) in the absence (top panel) or presence (lower panel) of 100 μM peptide 3, stained for p24^gag. Several cells in the upper panel, but not the lower panel, show strong, punctuate staining for p24^gag antigen. Both fields of view contain 40-50 cells (assessed by Hoeschst 33345 staining viewed under UV illumination conditions).
Jurkat cells following HIV infection were attached to 8-well chamber slides (Becton-Dickinson) by spinning the slides using a plate rotor in a Labofuge centrifuge (Haeraeus) at 3,000×g for 5 minutes. Attached Jurkat cells or THP-1 cells were then fixed by dipping the slides into ice-cold 70% ethanol for 90 seconds. […] A threshold was then applied to each image which was the lowest threshold that detected <1% of the pixels of an image of uninfected cells stained under identical conditions. The number of objects exceeding this threshold in each field of view were counted. This process, for example, detected 9 objects in the field of view shown in the upper panel of FIG. 54D and 1 object in the field of view shown in the lower panel. […]

Sequence: EICADPKQKWVQ [peptide 3(1-12)[MCP-1]]
- % inhibition at 100 μM versus TGFβ1, human monocyte migration [1]: n.s.
- % inhibition at 100 μM versus IL8, human monocyte migration [2]: 106%
- inhibition of HIV infectivity of THP-1 cells, p24gag staining (HIV (MN)): more than 80%
- inhibition of HIV infectivity of THP-1 cells, p24gag staining (HIV (MN); listed as second peptide, spanning amino acids 51 to 62 of human MCP-1): 83±7%

Sequence: SYRRITSSKCPKEAV [peptide 2(1-15)[MCP-1]]
- % inhibition at 100 μM versus TGFβ1, human monocyte migration [1]: n.s.
- % inhibition at 100 μM versus IL8, human monocyte migration [2]: n.s.
- inhibition of HIV infectivity of THP-1 cells, p24gag staining (HIV (MN)): 28±5%
